This is an account of results in patent publication US20240315937A1, “STABLE EFFICIENT COSMETIC PREPARATIONS” (YISSUM RESEARCH DEVELOPMENT COMPANY OF THE HEBREW …, priority 2021, published 2024).

Data set [1] in a line: Dissolution of CBD in oil solvents of the creams. The format is physicochemical. The settings on record: CBD 2%; medium-chain triglycerides (MCT) and sesame oil. The procedure: The main tested parameters included the following: • 1. Reduction of ethanol: Ethanol is generally considered a co-solvent of CBD. The concentration of ethanol was reduced from initial to final preparations, starting from 3.6% and 0.9% to no ethanol in the final preparations, where CBD was dissolved directly in sesame oil (see for example CBD #34 in Table 13 below). • 2. Selection of an antioxidant: The selected antioxidants were BHT and propyl gallate, in various combinations and proportions. […] Due to this property, the final preparations contained 0.05% BHT (see Table 13, CBD #34). • 3. Selection of an oil: Oil is a known solvent for CBD. Various oils were tested as optional solvents in the cosmetic creams of the invention. […] Both MCT and sesame oil have antioxidants properties (see Table 13, CBD #34).

A short description of data set [2]: Force degradation of 2% CBD cream (CBD assay by HPLC). It is filed as physicochemical. Particulars: vs untreated reference. The procedure: Samples were prepared by the following method: • 1. 200 mg 2% CBD cream vs. Blank (7 mL vials), • 2. Subjected to Oxidation/Base/Acid/Heat/UV conditions (see below), • 3. Mixing with 4 mL DMSO, • 4. Sonication, 30 min, • 5. Shaking, 1 h, • 6. Centrifugation at 4000 rpm, 5 min, • 7. Filtration by 0.22 μm PTFE, • 8. HPLC sample preparation and HPLC protocol as above.
Samples were subjected to the following force degradation conditions and tested for CBD content: • Heat: 200 mg cream was heated at 100° C. (oil bath) for 6 h; • UV: 200 mg cream was exposed to the sun for 3 h; • Acidic conditions: 200 mg cream was treated with 150 μl 9M HCl (aq.) for 1 h and neutralized with 150 μl 9M NaOH; • Basic conditions: […] μl 1M HCl; • Oxidation: 200 mg of cream was treated with 1 ml 30% H2O2 for 2 h; CBD assay % was calculated according to the untreated reference.

SMILES strings stand for the structures.

`C=C(C)[C@@H]1CCC(C)=C[C@H]1c1c(O)cc(CCCCC)cc1O` [CBD, cannabidiol]: the “dissolution of CBD in oil solvent” value in data set [1] is “complete dissolution”. Moreover, the CBD assay is recorded as 67.7% in data set [2] (Acid: 200 mg 2% CBD cream, 150 μl 9M HCl, 1 h); 81.9% in data set [2] (Base: 200 mg 2% CBD cream, 200 μl 1M NaOH, time point 1 h); 87.8% in data set [2] (Heat: 200 mg 2% CBD cream at 100° C. (oil bath), 6 h); 63.5% in data set [2] (Oxidation: 200 mg 2% CBD cream, 1 ml 30% H2O2, 2 h); 98.4% in data set [2] (UV: 200 mg 2% CBD cream exposed to the sun, 3 h).
